Laboratory results reported in patent publication US20220324835A1 (Nurix Therapeutics, Inc., priority 2018, published 2022).
Like-named read-outs stand apart in the source and are kept apart here.

Legend:
[1] = test system: T-cell; experiment: IL-2 secretion from T-cells stimulated with anti-CD3 antibody alone (Biological Example 2); type: cell-based; settings: primary human total T-cells, read-out: IL-2 secretion, Anti-CD3 stimulation, fold change over baseline; for fold induction at 1 µM: 1 μM compound; for fold induction at 8 µM: 8 μM compound
[2] = test system: T-cell; experiment: CD25 cell surface staining on T-cells co-stimulated with anti-CD3 and anti-CD28 antibody (Biological Example 2); type: cell-based, human; settings: Homo sapiens, T-cell, primary human total T-cells, baseline = anti-CD3/anti-CD28 stimulated cells without inhibitor, read-out: CD25 staining, Anti-CD3/Anti-CD28 stimulation, fold change over baseline; for fold induction at 0.3 µM: 0.3 μM compound; for fold induction at 1 µM: 1 μM compound; for fold induction at 4 µM: 4 μM compound
Procedure, shortened: (§1)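 Values are fold-change over baseline: readings (IL-2 release, CD25 staining) from inhibitor-treated T-cells divided against untreated cells […]. No detailed procedure stated.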

[3] = target: T1, Cbl-b (Homo sapiens, UniProt Q13191); experiment: Cbl-b activity assay (Cbl-b inhibition assay), TR-FRET of Cbl-b interaction with UbcH5B-Ub; type: biochemical; settings: assay buffer with 100 mM NaCl, 60 nM Src kinase; read-out: Cbl-b activity IC50
Procedure, shortened: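 Compound-treated Cbl-b was incubated 1.5 h with Src kinase (60 nM final; 30 nM for asterisked values, which also used 50 mM instead of 100 mM NaCl), 1 mM ATP and 5 mM MgCl2. Binding to fluorescent Ub-loaded UbcH5B (C85K mutant) was then read by TR-FRET after 1 h more.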

[4] = test system: T-cell; experiment: CD25 cell surface staining on T-cells stimulated with anti-CD3 antibody alone (Biological Example 2); type: cell-based; settings: primary human total T-cells, baseline = anti-CD3/anti-CD28 stimulated cells without inhibitor, read-out: CD25 staining, Anti-CD3 stimulation, fold change over baseline; for fold induction at 1 µM: 1 μM compound; for fold induction at 8 µM: 8 μM compound
[5] = test system: T-cell; experiment: IL-2 secretion from T-cells co-stimulated with anti-CD3 and anti-CD28 antibody (Biological Example 2); type: cell-based, human; settings: Homo sapiens, T-cell, primary human total T-cells, baseline = anti-CD3/anti-CD28 stimulated cells without inhibitor, read-out: IL-2 secretion, Anti-CD3/Anti-CD28 stimulation, fold change over baseline; for fold induction at 0.3 µM: 0.3 μM compound; for fold induction at 1 µM: 1 μM compound; for fold induction at 4 µM: 4 μM compound
Procedure, shortened: as §1

[6] = target: T1, Cbl-b; experiment: Cbl-b inhibition assay (Cbl-b activity assay, FRET, Biological Example 1; 100 mM NaCl, 60 nM Src kinase); type: biochemical; settings: upper bound stated in text lists; read-out: IC50 values in the Cbl-b inhibition assay of Biological Example 1
Procedure, shortened: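 Inhibitor activity is measured as reduced terbium-to-fluorescein FRET between streptavidin-terbium on biotinylated Cbl-b and Bodipy-fluorescein ubiquitin carried by an irreversible UbcH5B-Ub conjugate, binding of which depends on Src phosphorylation of Cbl-b.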

[7] = test system: primary human NK cells; experiment: NK cell activation assessed by cytokine secretion (coculture with K562 NucRed target cells); type: cell-based
Protocol: Peripheral blood mononuclear cells (PBMC) were obtained either: 1) by using Ficoll-Paque™ (GE Healthcare) for separation of peripheral blood hematopoietic cells from buffy coats of healthy human donors; or 2) directly from LeukoPak donations. […] The cells were cultured overnight with IL-2 (60 ng/mL) at 37° C. 5% CO2. Cbl-b inhibitors were added 1 hour prior to stimulation and incubated at 37° C. 5% CO2 at a specific concentration (e.g., 10 μM, 1 μM, or 0.1 μM) with a final DMSO concentration of <0.1%. NK cells were co-cultured with target cells that were engineered to have a red nucleus (K562 NucRed) measurable by flow cytometry. […] The cells were mixed at the indicated ratios (e.g., 5:1, 1:1, or 1:5) of NK (effector cells) to K562 NucRed (target cells) for 6 hours. Cell free supernatants were collected and analyzed for cytokine secretion (e.g. TNFα, IFNγ, or MIP1β) by ELISA or Luminex multiplex kits following the manufacturer's protocol. IFNγ secretion was assessed using an R&D Systems ELISA kit (Catalog #DY285), TNFα secretion was assessed using an R&D Systems ELISA kit (Catalog #DY210), and MIP1β secretion was assessed using an R&D Systems ELISA kit (Catalog #DY271).
Readouts were reported as fold change over baseline. Baseline for this study was the measurement obtained from primary human NK effector cells cocultured with K562 NucRed target cells in the absence of a Cbl-b inhibitor. For NK cells cocultured with K562 NucRed cells, changes greater than 2.0-fold over baseline for cytokine secretion were considered a positive response (Table 10a and 10b).

[8] = K562, 1:1 E/T, read-out: IFNγ secretion
[9] = K562, 1:1 E/T, read-out: MIP1β secretion
[10] = K562, 1:1 E/T, read-out: TNFα secretion
[11] = K562, 5:1 E/T, read-out: IFNγ secretion
[12] = K562, 5:1 E/T, read-out: MIP1β secretion
[13] = K562, 5:1 E/T, read-out: TNFα secretion

T1 sequence (Q13191 36-427): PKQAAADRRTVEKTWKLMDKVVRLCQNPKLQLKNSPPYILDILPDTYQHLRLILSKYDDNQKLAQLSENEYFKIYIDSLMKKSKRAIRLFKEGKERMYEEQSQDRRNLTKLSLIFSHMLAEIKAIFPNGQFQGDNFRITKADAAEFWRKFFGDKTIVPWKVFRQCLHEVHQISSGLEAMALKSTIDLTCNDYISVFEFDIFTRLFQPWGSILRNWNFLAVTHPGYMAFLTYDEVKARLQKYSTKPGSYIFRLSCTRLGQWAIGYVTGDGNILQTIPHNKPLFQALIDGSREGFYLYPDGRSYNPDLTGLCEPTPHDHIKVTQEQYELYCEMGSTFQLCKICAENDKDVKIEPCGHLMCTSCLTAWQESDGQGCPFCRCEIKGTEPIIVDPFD

| SMILES | fold induction at 1 µM [1] | fold induction at 8 µM [1] | fold induction at 0.3 µM [2] | fold induction at 1 µM [2] | fold induction at 4 µM [2] | IC50 [3] | fold induction at 1 µM [4] | fold induction at 8 µM [4] | fold induction at 0.3 µM [5] | fold induction at 1 µM [5] | fold induction at 4 µM [5] | other results |
| --- | --- | --- | --- | --- | --- | --- | --- | --- | --- | --- | --- | --- |
| C[C@@H](c1cccc(N2Cc3c(cccc3C(F)(F)F)C2=O)c1)[C@H](F)c1nncn1C (racemic) [Compound 473, 2-(3-((1S,2S and 1R,2R)-1-fluoro-1-(4-methyl-4H-1,2,4-triazol-3-yl)propan-2-yl)phenyl)-4-(trifluoromethyl)isoindolin-1-one] | 0.051 to 0.1 | 0.151 to 0.2 | 1.01 to 1.3 | 1.01 to 1.3 | 1.01 to 1.3 | 301 to 1000 nM | 0.601 to 0.8 | > 1 | 1.01 to 2.5 | 1.01 to 2.5 | 2.51 to 5 |  |
| CN1CC[C@@H](O)[C@@H](Cc2cc3c(c(C(F)(F)F)c2)CN(c2cccc(C4(Cc5nncn5C)COC4)c2)C3=O)C1 (racemic) [Compound 532, 6-(((cis)-4-hydroxy-1-methylpiperidin-3-yl)methyl)-2-(3-(3-((4-methyl-4H-1,2,4-triazol-3-yl)methyl)oxetan-3-yl)phenyl)-4-(trifluoromethyl)isoindolin-1-one] | 0.101 to 0.15 |  | 1.01 to 1.3 | 1.01 to 1.3 |  | < 100 nM | 0.801 to 1 |  | 1.01 to 2.5 | 2.51 to 5 |  | IC50 [6]: ≤ 100 nM |
| C[C@@H](c1cccc(N2Cc3c(cccc3C(F)(F)F)C2=O)c1)C(F)c1nncn1C (stereo in doubt) [Compound 474, 2-(3-((1S, 2S)-1-fluoro-1-(4-methyl-4H-1,2,4-triazol-3-yl)propan-2-yl)phenyl)-4-(trifluoromethyl)isoindolin-1-one] | 0.051 to 0.1 | > 0.201 | 1.01 to 1.3 | 1.01 to 1.3 | 1.01 to 1.3 |  | 0.601 to 0.8 | > 1 | 1.01 to 2.5 | 1.01 to 2.5 | 2.51 to 5 |  |
| Cn1cnnc1C(F)[C@](C)(F)c1cccc(N2Cc3c(cccc3C(F)(F)F)C2=O)c1 (stereo in doubt) [Compound 478a, 2-(3-((1S,2R)-1,2-difluoro-1-(4-methyl-4H-1,2,4-triazol-3-yl)propan-2-yl)phenyl)-4-(trifluoromethyl)isoindolin-1-one] | < 0.05 | 0.051 to 0.1 | < 1 | < 1 | 1.01 to 1.3 | 301 to 1000 nM | < 0.6 | 0.601 to 0.8 | < 1 | < 1 | < 1 |  |
| Cn1cnnc1[C@@H](F)[C@](C)(F)c1cccc(N2Cc3c(cc(C4CC4)cc3C(F)(F)F)C2=O)c1 (stereo in doubt) [Compound 482, 6-cyclopropyl-2-[3-[(1R,2R)-1,2-difluoro-1-(4-methyl-4H-1,2,4-triazol-3-yl)propan-2-yl]phenyl]-4-(trifluoromethyl)-2,3-dihydro-1H-isoindol-1-one] | 0.051 to 0.1 | 0.051 to 0.1 | 1.01 to 1.3 | 1.01 to 1.3 | 1.01 to 1.3 | 301 to 1000 nM | 0.601 to 0.8 | 0.801 to 1 | < 1 | 1.01 to 2.5 | 1.01 to 2.5 |  |
| C[C@@H](Sc1nncn1C)c1cccc(NC(=O)c2ccc3ccccc3n2)c1 [Compound 9b, (R)-N-(3-(1-((4-methyl-4H-1,2,4-triazol-3-yl)thio)ethyl)phenyl)quinoline-2-carboxamide] |  |  |  |  |  |  |  |  |  |  |  | fold induction at 1 µM [7, 8]: < 1; fold induction at 1 µM [7, 9]: 1.01 to 2; fold induction at 1 µM [7, 10]: < 1; fold induction at 10 µM [7, 8]: < 1; fold induction at 10 µM [7, 9]: < 1; fold induction at 10 µM [7, 10]: < 1; fold induction at 1 µM [7, 11]: < 1; fold induction at 1 µM [7, 12]: < 1; fold induction at 1 µM [7, 13]: < 1; fold induction at 10 µM [7, 11]: < 1; fold induction at 10 µM [7, 12]: < 1; fold induction at 10 µM [7, 13]: < 1 |
| Cn1cnnc1C(F)(F)[C@](C)(F)c1cccc(N2Cc3c(cc(C(=O)N4CC(C(F)F)C4)cc3C(F)(F)F)C2=O)c1 [Compound 439, (R)-6-(3-(difluoromethyl)azetidine-1-carbonyl)-2-(3-(1,1,2-trifluoro-1-(4-methyl-4H-1,2,4-triazol-3-yl)propan-2-yl)phenyl)-4-(trifluoromethyl)isoindolin-1-one] | 0.051 to 0.1 | 0.051 to 0.1 | 1.01 to 1.3 | 1.01 to 1.3 | 1.01 to 1.3 | 301 to 1000 nM | 0.601 to 0.8 | 0.801 to 1 | 1.01 to 2.5 | 1.01 to 2.5 | 1.01 to 2.5 |  |
| Cn1cnnc1C(F)(F)[C@@](C)(F)c1cccc(N2Cc3c(cc(CN4CC[C@H](F)C4)cc3C(F)(F)F)C2=O)c1 [Compound 449, 6-(((S)-3-fluoropyrrolidin-1-yl)methyl)-2-(3-((S)-1,1,2-trifluoro-1-(4-methyl-4H-1,2,4-triazol-3-yl)propan-2-yl)phenyl)-4-(trifluoromethyl)isoindolin-1-one] | 0.051 to 0.1 | 0.051 to 0.1 | < 1 | < 1 | 1.01 to 1.3 | 301 to 1000 nM | 0.601 to 0.8 | 0.801 to 1 | < 1 | < 1 | 1.01 to 2.5 |  |
| CC(Cc1nncn1C)c1cc(C2CCC2)cc(N2Cc3c(cccc3C(F)(F)F)C2=O)c1 (stereo not drawn) [Compound 476, 2-(3-cyclobutyl-5-(1-(4-methyl-4H-1,2,4-triazol-3-yl)propan-2-yl)phenyl)-4-(trifluoromethyl)isoindolin-1-one] | 0.051 to 0.1 | 0.051 to 0.1 | 1.01 to 1.3 | 1.01 to 1.3 | 1.01 to 1.3 | 301 to 1000 nM | 0.601 to 0.8 | 0.801 to 1 | 1.01 to 2.5 | 1.01 to 2.5 | 1.01 to 2.5 |  |
